According to article PMC10893172, “Identification of Triazolopyrimidinyl Scaffold SARS-CoV-2 Papain-Like Protease (PL^pro) Inhibitor” (Pharmaceutics, 2024):
Where two headings read alike, the source gives them in different places.

Legend:
[1] = tested on: SARS-CoV and SARS-CoV-2 PL^pro protein; details: known PL^pro inhibitors, literature values; cited from earlier work
[2] = molecular target: SARS-CoV-2 papain-like protease (PL^pro) (Severe acute respiratory syndrome coronavirus 2, UniProt P0DTD1); experiment: biochemical
[3] = 0.2 µM PL^pro, 30 µM substrate, 30 min preincubation at 25 °C, endpoint fluorescence after 2 h, triplicate, read-out: IC50

| Compound | IC50 [1] | IC50 [2, 3] | further results |
| --- | --- | --- | --- |
| 5-Amino-2-methyl-N-[2-(1-naphthyl)ethyl]-benzamide [GRL0617] | 1.61 ± 0.09 µM |  |  |
| Cn1nccc1-c1cc(C(=O)NCc2ccc(S(C)(=O)=O)cn2)c(=O)n(-c2cccc(C(F)(F)F)c2)c1 [Hit 903] |  | 881 ± 41 µM |  |
| Cc1cc2nn(CC(=O)NCc3ccco3)c(=O)n2c(Nc2ccc(C)c(C)c2)n1 [Hit 372] |  | 82 ± 34 µM |  |
| Nc1nc2[nH]cnc2c(=S)[nH]1 [Tioguanin (6-TG)] | 72 ± 12 µM |  |  |
| Cc1ccc(C)c(NC(=O)Cn2nc3n(C)c(=O)c4c(c(-c5ccccc5)cn4C)n3c2=O)c1 [Hit 922] |  | 439 ± 43 µM |  |
| O=C(N/N=C/c1cccc(OC2CSC2)c1)c1ccccc1O [Hit 826] |  |  | IC50 [2]: 328 ± 33 µM |
| C[C@H](c1cccc2ccccc12)N1CCC(C(=O)NCc2cccc(F)c2)CC1 [Hit 3K] | 0.15 ± 0.01 µM |  |  |
